Laboratory results taken from patent publication US7208142B2, “Indanylidene compounds” (Symrise GmbH & Co. KG, priority 2000, dated 2007).

Columns and labels:
[1] = Photostability: irradiation in a Suntester, concentration decrease of the UV filters; format: physicochemical
Excerpt: The values give the concentration decrease of the UV filters in percentage following irradiation (dose in J/cm^2).

[2] = UV absorption of the compounds (E1/1 at λmax); format: physicochemical
[3] = formulation Example 1, 72 J/cm^2, 765 W/m^2
[4] = formulation Example 1, 144 J/cm^2, 765 W/m^2

λmax [2] | Structure (SMILES) | concentration decrease of the UV filter following irradiation [1, 3] [%] | concentration decrease of the UV filter following irradiation [1, 4] [%] | further results
 | CCCOC(=O)/C(C#N)=C1\CC(C)(C)c2cc(OC)c(OC)cc21 [Example A1] | 10 | 13 | concentration decrease of the UV filter following irradiation ([1]; combination A1 + OMC, formulation Example 12, 72 J/cm^2): 22%; concentration decrease of the UV filter following irradiation ([1]; combination A1 + OMC, formulation Example 12, 144 J/cm^2): 37%
 | COC(=O)/C(C#N)=C1\CC(C)(C)c2cc(OC)c(OCC(C)C[Si](C)(O[Si](C)(C)C)O[Si](C)(C)C)cc21 (stereo not shown) [Example A2] | 1 | 6 | concentration decrease of the UV filter following irradiation ([1]; combination A2 + OMC, formulation Example 12, 72 J/cm^2): 14%; concentration decrease of the UV filter following irradiation ([1]; combination A2 + OMC, formulation Example 12, 144 J/cm^2): 26%
335/316 | Cc1ccc2c(c1)/C(=C(\C#N)C(=O)C(C)(C)C)CC2(C)C [Example 4, 2-(3,3,6-trimethyl-1-indanylidene)-4,4-dimethyl-3-oxo-pentanonitrile] |  |  | E1/1 (specific extinction at λmax) [2]: 588/550
 | COc1cc2c(cc1OC)C(C)(C)C/C2=C(/C#N)C(=O)C(C)(C)C [Example B1] | 2 | 3 | concentration decrease of the UV filter following irradiation ([1]; combination B1 + OMC, formulation Example 12, 72 J/cm^2): 2%; concentration decrease of the UV filter following irradiation ([1]; combination B1 + OMC, formulation Example 12, 144 J/cm^2): 3%
342 nm | Cc1cc2c(cc1C)C(C)(C)C/C2=C(/C#N)C(=O)C(C)(C)C [Example 3, 2-(3,3,5,6-tetramethyl-1-indanylidene)-4,4-dimethyl-3-oxo-pentanonitrile] |  |  | 
340 nm | COc1c(C)cc2c(c1C)C(C)(C)C/C2=C(/C#N)C(=O)C(C)(C)C [Example 2, 2-(5-Methoxy-3,3,4,6-tetramethyl-1-indanylidene)-4,4-dimethyl-3-oxo-pentanonitrile] |  |  | 

Structure (SMILES) | λmax [2] | concentration decrease of the UV filter following irradiation [1, 3] [%] | concentration decrease of the UV filter following irradiation [1, 4] [%] | further results
COc1cc2c(cc1OC(C)=O)/C(=C(\C#N)C(=O)C(C)(C)C)CC2(C)C [Example 8, 2-(6-Acetoxy-3,3-dimethyl-5-methoxy-1-indanylidene)-4,4-dimethyl-3-oxo-pentanonitrile] | 355/302 |  |  | E1/1 (specific extinction at λmax) [2]: 420/280
COc1cc2c(cc1OC)C(C)(C)C/C2=C(/C#N)C(=O)C(C)(C)C [Example 1, 2-(5,6-Dimethoxy-3,3-dimethyl-1-indanylidene)-4,4-dimethyl-3-oxo-pentanonitrile] | 373 nm |  |  | 
